From publication PMC4131899 (Biochemistry, 2014)
Changes are numbered by the printed parent chain. Read-outs that look alike come from different tables or passages of the source.

Key:
CYP2B4 F429H [1] = target: T1, CYP2B4 F429H (Oryctolagus cuniculus, UniProt P00178, F429H); experiment: biochemical
T1 sequence (P00178 1-491 F429H): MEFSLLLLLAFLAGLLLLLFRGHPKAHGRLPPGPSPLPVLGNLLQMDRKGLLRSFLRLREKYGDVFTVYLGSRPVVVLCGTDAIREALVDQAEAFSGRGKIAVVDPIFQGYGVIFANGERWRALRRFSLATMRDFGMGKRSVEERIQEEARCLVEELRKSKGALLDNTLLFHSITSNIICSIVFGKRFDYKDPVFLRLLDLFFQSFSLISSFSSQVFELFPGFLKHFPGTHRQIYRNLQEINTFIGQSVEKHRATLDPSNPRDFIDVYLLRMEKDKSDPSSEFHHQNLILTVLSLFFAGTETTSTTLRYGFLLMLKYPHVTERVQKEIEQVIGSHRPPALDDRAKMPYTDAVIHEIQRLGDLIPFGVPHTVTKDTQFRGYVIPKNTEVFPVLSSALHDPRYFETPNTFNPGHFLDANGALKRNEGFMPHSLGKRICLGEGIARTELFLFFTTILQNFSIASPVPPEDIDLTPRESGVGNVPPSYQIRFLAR

wild type (WT) CYP2B4 = target: T2, wild type (WT) CYP2B4 (Oryctolagus cuniculus, UniProt P00178); experiment: Substrate binding
T2 sequence (P00178 1-491): T1 sequence (P00178 1-491 F429H) with H429F

P450 (CYP2B4) = experiment: Binding of redox mediator dyes to P450; conditions: data not shown
CYP2B4 F429H [2] = target: T3, CYP2B4 F429H (Oryctolagus cuniculus, UniProt P00178, F429H)
T3 sequence (P00178 1-491 F429H): T1 sequence (P00178 1-491 F429H)
T3 sequence (P00388 1-678 partner): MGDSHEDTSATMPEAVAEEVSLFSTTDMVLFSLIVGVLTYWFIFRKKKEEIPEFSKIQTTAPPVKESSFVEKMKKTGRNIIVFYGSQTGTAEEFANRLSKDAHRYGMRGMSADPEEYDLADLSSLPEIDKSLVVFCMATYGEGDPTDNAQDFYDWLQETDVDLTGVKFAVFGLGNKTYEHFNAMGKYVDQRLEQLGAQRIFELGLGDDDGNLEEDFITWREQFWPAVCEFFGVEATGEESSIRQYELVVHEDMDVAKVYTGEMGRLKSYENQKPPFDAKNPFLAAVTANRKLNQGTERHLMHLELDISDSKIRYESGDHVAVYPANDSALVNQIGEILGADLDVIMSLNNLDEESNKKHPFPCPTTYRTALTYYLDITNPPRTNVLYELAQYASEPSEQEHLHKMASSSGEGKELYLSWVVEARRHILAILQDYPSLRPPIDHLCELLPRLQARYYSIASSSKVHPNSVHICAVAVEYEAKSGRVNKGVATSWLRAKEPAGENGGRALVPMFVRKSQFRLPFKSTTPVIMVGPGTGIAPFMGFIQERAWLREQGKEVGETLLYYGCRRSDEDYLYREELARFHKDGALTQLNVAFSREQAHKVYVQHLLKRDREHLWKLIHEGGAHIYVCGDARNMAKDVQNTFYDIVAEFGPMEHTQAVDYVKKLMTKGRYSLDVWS

WT CYP2B4 [3] = target: T4, WT CYP2B4 (Oryctolagus cuniculus, UniProt P00178); conditions: 1 mM benzphetamine, 20 °C
T4 sequence (P00178 1-491): T1 sequence (P00178 1-491 F429H) with H429F

CYP2B4 F429H [4] = target: T1, CYP2B4 F429H; remark: listed apart in the source
CYP2B4 F429H [5] = target: T1, CYP2B4 F429H; conditions: 1 mM benzphetamine, 20 °C
WT CYP2B4 [6] = target: T5, WT CYP2B4 (Oryctolagus cuniculus, UniProt P00178); experiment: N-demethylation of benzphetamine in purified reconstituted system; type: biochemical, rabbit; conditions: wild type; 1 mM benzphetamine, varied reductase
T5 sequence (P00178 1-491): T1 sequence (P00178 1-491 F429H) with H429F
T5 sequence (P00388 1-678 partner): T3 sequence (P00388 1-678 partner)

Q: What does the source list for `Cc1cc(C(C)(C)C)c(O)c(C(C)(C)C)c1` [butylated hydroxytoluene, 2,6-di-tert-butyl-4-methylphenol]?
A: Kd (CYP2B4 F429H [1]): 1.82 ± 0.24 µM; Kd (wild type (WT) CYP2B4): 0.31 ± 0.14 µM

Q: How did the “spectral change on addition of dye to P450” value (P450 (CYP2B4)) turn out when `c1ccc(C[n+]2ccc(-c3cc[n+](Cc4ccccc4)cc3)cc2)cc1` [benzyl viologen] was run?
A: did not cause any spectral change

Q: For `Nc1ccc2nc3ccc(N)cc3[n+](-c3ccccc3)c2c1.[Cl-]` [phenosafranin], which “spectral change on addition of dye to P450” value (P450 (CYP2B4)) is on record?
A: did not cause any spectral change

Q: Which “activity retained relative to wild type (N-demethylation of BP)” value (CYP2B4 F429H [2]; F429H vs wild type) does the source give for `C[C@@H](Cc1ccccc1)N(C)Cc1ccccc1` [benzphetamine] here?
A: 3.6%

Q: What about the “Vmax (N-demethylation of BP)” value (CYP2B4 F429H [2]; F429H, 1 mM benzphetamine, varied reductase) of the same compound?
A: 1.60 ± 0.05 nmol of product min^–1 (nmol of 450)^−1

Q: What about the “increase in Em on binding of benzphetamine” value (WT CYP2B4 [3]) of the same compound?
A: 88 mV

Q: And the “redox potential Em with BP” value (WT CYP2B4 [3]; pH 7.4)?
A: –244 ± 7 mV

Q: What about the “decreased affinity of mutant vs WT” value (CYP2B4 F429H [4]; 30 °C, F429H vs WT) of the same compound?
A: 5 fold

Q: And the “enhancement of binding by cyt b5” value (CYP2B4 F429H [4]; F429H, with vs without cyt b5)?
A: 5–6 fold

Q: What about the “increase in Em on binding of benzphetamine” value (CYP2B4 F429H [5]) of the same compound?
A: 15 mV

Q: And the “redox potential Em with BP” value (CYP2B4 F429H [5]; pH 7.4)?
A: –230 ± 8 mV

Q: And the “Vmax (N-demethylation of BP)” value (WT CYP2B4 [6])?
A: 49 ± 5 nmol of product min^–1 (nmol of 450)^−1

Q: And the Kd (CYP2B4 F429H [1]; Ks, F429H, no reductase, no cyt b5, 15 °C)?
A: 900 ± 200 µM

Q: And the Kd (CYP2B4 F429H [1]; Ks, F429H, no reductase, no cyt b5, 30 °C)?
A: 390 ± 80 µM

Q: What about the Kd (CYP2B4 F429H [1]; Ks, F429H, no reductase, with cyt b5, 15 °C) of the same compound?
A: 150 ± 60 µM

Q: And the Kd (CYP2B4 F429H [1]; Ks, F429H, with reductase, no cyt b5, 15 °C)?
A: 830 ± 220 µM

Q: And the Kd (wild type (WT) CYP2B4; Ks, WT, no reductase, no cyt b5, 15 °C)?
A: 250 ± 7 µM

Q: And the Kd (wild type (WT) CYP2B4; Ks, WT, no reductase, no cyt b5, 30 °C)?
A: 80 ± 20 µM

Q: And the Kd (wild type (WT) CYP2B4; Ks, WT, no reductase, with cyt b5, 15 °C)?
A: 58 ± 6 µM

Q: What about the Kd (wild type (WT) CYP2B4; Ks, WT, with reductase, no cyt b5, 15 °C) of the same compound?
A: 220 ± 10 µM
